What is called pIC50 is the negative decadic logarithm of the IC50, by convention in mol/L.

pIC50: −log10 of the molar value.

This experiment relates to Platelet. As to the kind of experiment: Inhibition of arachidonic acid-induced platelet aggregation in rabbit […] by turbidimetric method. The experiment is classed as functional, cell-based. The following applies: Oryctolagus cuniculus.
As to `CC(=O)Oc1ccccc1C(=O)O` [ASPIRIN], the pIC50 was 4.69.

`COc1ccc(-c2c3c(c(OC)c4cc5c(cc24)OCO5)COC3=O)cc1OC` [CHINENSINAPHTHOL METHYL ETHER] gave a pIC50 of 4.73. With `COc1cc2c(O)c3c(c(-c4ccc5c(c4)OCO5)c2cc1OC)C(=O)OC3` [DIPHYLLIN] the figure was less than 4.00; with `COc1ccc2c(c1)c(CC(=O)O)c(C)n2C(=O)c1ccc(Cl)cc1` [INDOMETHACIN], 6.68. Consider `COc1cc2c(OC)c3c(c(-c4ccc5c(c4)OCO5)c2cc1OC)C(=O)OC3` [JUSTICIDIN A], for which the pIC50 was 4.50. As to `COc1c2c(c(-c3ccc4c(c3)OCO4)c3cc4c(cc13)OCO4)COC2=O` [NEOJUSTICIN A], the pIC50 is 5.96.

The molecule `COc1cc2c(OC)c3c(c(-c4ccc5c(c4)OCO5)c2cc1OC)COC3=O` [NEOJUSTICIN B] showed a pIC50 of 4.29.

`COc1c2c(c(-c3ccc4c(c3)OCO4)c3cc4c(cc13)OCO4)C(=O)OC2` [TAIWANIN E METHYL ETHER] showed a pIC50 of 5.77. With `O=C1OCc2c1c(-c1ccc3c(c1)OCO3)c1cc3c(cc1c2O)OCO3` [TAIWANIN E], the pIC50 was 5.10.

The values are drawn from ChEMBL document CHEMBL1158294, “Antiplatelet arylnaphthalide lignans from Justicia procumbens” (J Nat Prod, 1996).
